This passage reports % of inhibition and % of control results from ChEMBL document CHEMBL5465560, “Selectivity Literature for EUbOPEN Chemogenomic Library” (2024).

In assay [1] the target is Tyrosine-protein kinase HCK (Homo sapiens) (UniProt P08631). Description: Selectivity interaction (ActivX KiNativ screen (ex vivo kinase selectivity in human PBMCs)) EUB0001619a HCK. The format is cell-based. Conditions: PBMC, at 1 µM.
Assay [2] concerns the target T1, Receptor-interacting serine/threonine-protein kinase 1 (Homo sapiens) (UniProt Q13546).
T1 sequence (whole entry): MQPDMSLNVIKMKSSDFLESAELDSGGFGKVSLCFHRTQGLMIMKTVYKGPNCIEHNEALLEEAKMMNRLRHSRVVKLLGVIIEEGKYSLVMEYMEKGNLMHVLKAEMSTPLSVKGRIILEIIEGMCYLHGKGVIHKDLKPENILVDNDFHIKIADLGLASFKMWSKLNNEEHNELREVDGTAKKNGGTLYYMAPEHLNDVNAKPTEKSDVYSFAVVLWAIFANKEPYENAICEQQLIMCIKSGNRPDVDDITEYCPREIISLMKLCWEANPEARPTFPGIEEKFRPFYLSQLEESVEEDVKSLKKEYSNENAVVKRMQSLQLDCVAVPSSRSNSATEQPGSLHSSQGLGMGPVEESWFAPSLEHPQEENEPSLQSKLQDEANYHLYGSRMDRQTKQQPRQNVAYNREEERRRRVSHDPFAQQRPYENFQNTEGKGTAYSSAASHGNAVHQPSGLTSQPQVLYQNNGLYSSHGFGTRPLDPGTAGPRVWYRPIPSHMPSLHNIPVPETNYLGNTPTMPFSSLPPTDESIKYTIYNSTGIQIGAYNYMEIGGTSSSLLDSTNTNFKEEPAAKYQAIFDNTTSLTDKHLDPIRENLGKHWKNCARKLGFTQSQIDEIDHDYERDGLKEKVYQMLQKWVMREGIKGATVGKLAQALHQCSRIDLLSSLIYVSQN
Briefly: Selectivity interaction (KinomeScan (DiscoverX)) EUB0000695a RIPK1. Conditions: at 100 nM.

Assay [3] has as its target T2, Serine/threonine-protein kinase 3 (Homo sapiens) (UniProt Q13188).
T2 sequence (whole entry): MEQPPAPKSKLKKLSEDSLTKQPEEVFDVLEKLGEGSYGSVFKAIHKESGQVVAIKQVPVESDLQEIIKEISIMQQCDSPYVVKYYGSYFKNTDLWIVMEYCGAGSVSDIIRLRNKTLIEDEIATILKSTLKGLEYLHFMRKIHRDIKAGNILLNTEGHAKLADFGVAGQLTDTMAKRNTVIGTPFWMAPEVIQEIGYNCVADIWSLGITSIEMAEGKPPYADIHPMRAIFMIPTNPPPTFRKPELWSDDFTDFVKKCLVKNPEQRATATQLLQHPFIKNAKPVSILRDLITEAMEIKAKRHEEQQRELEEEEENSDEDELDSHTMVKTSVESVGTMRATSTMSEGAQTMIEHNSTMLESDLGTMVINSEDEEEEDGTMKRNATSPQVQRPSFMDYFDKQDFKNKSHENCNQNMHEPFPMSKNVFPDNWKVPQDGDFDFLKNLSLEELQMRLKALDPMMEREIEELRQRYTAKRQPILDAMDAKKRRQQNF
Briefly: Selectivity interaction (SelectScreen profiling (Invitrogen)) EUB0000607a STK3. Conditions: at 2 µM.

The target of assay [4] is Serine/threonine-protein kinase 16 (Homo sapiens, UniProt O75716). Briefly: Selectivity interaction (KinomeScan (DiscoverX)) EUB0001550a STK16. Conditions: at 1 µM.
Chain of Serine/threonine-protein kinase 16 (O75716 whole entry): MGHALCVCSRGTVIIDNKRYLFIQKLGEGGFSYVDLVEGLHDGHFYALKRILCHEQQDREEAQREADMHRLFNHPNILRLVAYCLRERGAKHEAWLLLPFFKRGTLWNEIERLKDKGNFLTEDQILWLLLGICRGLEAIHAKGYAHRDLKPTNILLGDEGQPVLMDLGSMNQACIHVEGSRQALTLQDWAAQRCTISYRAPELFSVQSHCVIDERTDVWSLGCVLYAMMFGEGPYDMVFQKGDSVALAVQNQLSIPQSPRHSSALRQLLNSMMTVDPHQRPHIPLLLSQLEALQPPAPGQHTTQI
In assay [5] the target is Mitogen-activated protein kinase 10 (Homo sapiens, UniProt P53779). To be noted: at 10 µM.
Chain of Mitogen-activated protein kinase 10 (P53779 whole entry): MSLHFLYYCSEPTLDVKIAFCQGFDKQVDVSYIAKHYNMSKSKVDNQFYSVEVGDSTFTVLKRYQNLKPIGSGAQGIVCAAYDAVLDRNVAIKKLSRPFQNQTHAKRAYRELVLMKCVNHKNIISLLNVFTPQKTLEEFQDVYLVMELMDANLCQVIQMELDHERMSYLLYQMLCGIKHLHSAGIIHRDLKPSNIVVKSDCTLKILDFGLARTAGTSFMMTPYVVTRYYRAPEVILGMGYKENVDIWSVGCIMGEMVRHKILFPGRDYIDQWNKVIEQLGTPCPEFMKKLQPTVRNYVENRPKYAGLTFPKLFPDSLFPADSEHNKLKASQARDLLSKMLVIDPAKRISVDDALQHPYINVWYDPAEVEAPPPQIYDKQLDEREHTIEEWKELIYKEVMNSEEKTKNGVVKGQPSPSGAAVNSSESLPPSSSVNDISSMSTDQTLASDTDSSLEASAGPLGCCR
The target of assay [6] is Serine/threonine-protein kinase tousled-like 2 (Homo sapiens) (UniProt Q86UE8). Description: Selectivity interaction (ProQinase) EUB0000171b TLK2.
Chain of Serine/threonine-protein kinase tousled-like 2 (Homo sapiens) (Q86UE8 whole entry, looked up): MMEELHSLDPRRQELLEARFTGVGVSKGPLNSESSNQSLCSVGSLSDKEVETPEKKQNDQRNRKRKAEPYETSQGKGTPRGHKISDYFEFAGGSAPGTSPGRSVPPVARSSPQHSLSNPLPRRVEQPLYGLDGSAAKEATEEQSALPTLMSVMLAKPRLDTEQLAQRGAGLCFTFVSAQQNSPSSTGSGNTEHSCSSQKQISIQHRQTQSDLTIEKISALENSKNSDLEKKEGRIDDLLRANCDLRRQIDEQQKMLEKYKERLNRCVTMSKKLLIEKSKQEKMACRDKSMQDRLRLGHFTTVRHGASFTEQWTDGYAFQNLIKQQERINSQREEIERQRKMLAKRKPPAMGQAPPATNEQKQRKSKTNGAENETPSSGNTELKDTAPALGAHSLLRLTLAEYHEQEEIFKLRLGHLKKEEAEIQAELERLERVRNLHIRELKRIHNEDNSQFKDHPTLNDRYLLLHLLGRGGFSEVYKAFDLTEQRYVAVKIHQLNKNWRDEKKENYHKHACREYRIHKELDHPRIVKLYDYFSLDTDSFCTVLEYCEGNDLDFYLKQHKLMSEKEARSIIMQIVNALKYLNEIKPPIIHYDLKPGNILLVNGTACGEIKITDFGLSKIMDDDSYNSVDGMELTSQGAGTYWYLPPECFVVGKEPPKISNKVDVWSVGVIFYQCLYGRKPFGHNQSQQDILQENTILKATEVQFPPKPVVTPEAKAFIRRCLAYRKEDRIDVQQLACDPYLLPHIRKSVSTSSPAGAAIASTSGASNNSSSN
The target of assay [7] is Protein kinase C delta type (Homo sapiens) (UniProt Q05655). Briefly: Selectivity interaction (KinomeScan (DiscoverX)) EUB0000655a PRKCD. Conditions: at 10 µM.
Chain of Protein kinase C delta type (Homo sapiens) (Q05655 whole entry, looked up): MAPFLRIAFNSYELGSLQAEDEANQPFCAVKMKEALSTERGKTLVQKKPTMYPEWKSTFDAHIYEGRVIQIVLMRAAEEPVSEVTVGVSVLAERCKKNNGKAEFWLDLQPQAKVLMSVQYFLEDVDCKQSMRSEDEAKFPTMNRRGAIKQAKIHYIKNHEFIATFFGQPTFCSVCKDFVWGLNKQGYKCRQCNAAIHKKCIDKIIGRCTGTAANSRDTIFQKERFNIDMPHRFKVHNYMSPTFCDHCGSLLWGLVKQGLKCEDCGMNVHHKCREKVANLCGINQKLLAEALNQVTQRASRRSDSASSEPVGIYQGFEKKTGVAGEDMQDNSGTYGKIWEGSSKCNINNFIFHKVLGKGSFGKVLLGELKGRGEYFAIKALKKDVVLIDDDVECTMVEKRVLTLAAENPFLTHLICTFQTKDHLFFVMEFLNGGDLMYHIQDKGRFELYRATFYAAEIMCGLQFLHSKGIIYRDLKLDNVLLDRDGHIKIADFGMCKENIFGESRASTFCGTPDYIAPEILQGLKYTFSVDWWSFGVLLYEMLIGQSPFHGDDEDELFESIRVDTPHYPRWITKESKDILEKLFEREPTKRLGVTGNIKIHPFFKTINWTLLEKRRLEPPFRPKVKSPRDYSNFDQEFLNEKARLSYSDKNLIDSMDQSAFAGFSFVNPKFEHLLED
The test system of assay [8] is Tyrosine-protein kinase ABL1 (Homo sapiens), P00519 [F317L]. Description: Selectivity interaction (KinomeScan (DiscoverX)) EUB0000618a ABL1. To be noted: at 10 µM.
Chain of Tyrosine-protein kinase ABL1 (Homo sapiens), P00519 [F317L] (P00519 whole entry F317L): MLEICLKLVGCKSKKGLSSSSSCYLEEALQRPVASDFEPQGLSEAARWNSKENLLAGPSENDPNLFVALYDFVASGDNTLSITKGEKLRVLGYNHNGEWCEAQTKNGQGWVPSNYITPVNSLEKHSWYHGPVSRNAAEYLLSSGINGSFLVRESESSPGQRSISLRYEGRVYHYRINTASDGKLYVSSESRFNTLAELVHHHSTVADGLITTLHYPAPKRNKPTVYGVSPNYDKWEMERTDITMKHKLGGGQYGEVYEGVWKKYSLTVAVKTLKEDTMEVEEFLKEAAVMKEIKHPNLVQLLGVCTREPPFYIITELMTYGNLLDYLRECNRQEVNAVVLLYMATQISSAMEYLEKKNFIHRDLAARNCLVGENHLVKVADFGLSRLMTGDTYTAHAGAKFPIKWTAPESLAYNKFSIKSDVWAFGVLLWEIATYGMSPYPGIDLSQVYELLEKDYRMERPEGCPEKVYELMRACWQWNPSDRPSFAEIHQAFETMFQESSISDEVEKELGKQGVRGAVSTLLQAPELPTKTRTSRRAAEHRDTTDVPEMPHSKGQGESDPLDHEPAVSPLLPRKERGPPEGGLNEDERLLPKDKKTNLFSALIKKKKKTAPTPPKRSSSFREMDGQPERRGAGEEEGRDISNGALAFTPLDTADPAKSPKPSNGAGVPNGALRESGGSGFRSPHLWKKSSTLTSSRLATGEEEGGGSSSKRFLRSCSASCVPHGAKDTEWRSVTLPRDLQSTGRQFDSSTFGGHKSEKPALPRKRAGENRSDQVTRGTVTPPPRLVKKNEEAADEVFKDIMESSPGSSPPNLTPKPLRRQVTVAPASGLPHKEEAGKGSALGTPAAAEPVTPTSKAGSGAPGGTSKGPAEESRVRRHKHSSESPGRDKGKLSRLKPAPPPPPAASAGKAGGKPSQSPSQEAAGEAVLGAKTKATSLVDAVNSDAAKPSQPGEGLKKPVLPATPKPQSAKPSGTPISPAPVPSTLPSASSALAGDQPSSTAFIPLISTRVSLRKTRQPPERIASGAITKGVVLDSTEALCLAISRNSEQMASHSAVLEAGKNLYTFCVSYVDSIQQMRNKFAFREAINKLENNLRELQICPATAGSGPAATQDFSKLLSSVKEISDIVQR
Assay [9] has as its target Ribosomal protein S6 kinase alpha-5 (Homo sapiens) (UniProt O75582). Briefly: Selectivity interaction (KinomeScan (DiscoverX)) EUB0001079a RPS6KA5. To be noted: at 1 µM.
Assay [10] deals with T3, Inhibitor of nuclear factor kappa-B kinase subunit epsilon (Homo sapiens) (UniProt Q14164).
T3 sequence (whole entry): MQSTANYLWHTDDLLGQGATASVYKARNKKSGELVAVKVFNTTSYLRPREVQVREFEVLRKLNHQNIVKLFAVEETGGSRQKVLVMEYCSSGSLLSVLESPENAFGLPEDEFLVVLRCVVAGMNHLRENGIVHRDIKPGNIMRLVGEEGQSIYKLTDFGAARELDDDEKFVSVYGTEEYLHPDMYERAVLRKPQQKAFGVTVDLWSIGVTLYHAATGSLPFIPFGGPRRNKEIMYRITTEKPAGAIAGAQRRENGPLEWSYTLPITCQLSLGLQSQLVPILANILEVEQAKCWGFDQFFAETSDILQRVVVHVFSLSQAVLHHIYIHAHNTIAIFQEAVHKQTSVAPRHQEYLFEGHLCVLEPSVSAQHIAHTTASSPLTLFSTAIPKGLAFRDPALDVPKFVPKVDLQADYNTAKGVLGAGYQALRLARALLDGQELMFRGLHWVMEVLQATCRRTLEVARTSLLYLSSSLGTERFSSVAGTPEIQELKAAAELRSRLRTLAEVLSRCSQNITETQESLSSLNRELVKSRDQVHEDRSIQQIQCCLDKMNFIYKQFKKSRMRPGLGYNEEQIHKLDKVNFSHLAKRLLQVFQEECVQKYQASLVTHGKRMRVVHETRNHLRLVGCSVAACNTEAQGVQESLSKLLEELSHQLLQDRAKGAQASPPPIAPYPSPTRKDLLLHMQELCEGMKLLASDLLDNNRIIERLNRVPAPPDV
Description: Selectivity interaction (KinomeScan (DiscoverX)) EUB0001079a IKBKE. Conditions: at 1 µM.

Assay [11] deals with T4, Testis-specific serine/threonine-protein kinase 3 (Homo sapiens) (UniProt Q96PN8).
T4 sequence (whole entry): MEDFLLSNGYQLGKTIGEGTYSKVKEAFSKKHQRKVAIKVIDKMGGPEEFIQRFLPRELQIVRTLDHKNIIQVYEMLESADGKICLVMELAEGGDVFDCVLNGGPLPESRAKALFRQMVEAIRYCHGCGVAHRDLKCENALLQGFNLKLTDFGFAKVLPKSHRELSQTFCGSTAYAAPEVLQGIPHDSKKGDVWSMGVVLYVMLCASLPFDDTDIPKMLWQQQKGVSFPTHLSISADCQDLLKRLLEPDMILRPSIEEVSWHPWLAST
Briefly: Selectivity interaction (KinomeScan (DiscoverX)) EUB0001079a TSSK3. Conditions: at 1 µM.

Chain of Tyrosine-protein kinase HCK (Homo sapiens) (P08631 2-526 limits assumed): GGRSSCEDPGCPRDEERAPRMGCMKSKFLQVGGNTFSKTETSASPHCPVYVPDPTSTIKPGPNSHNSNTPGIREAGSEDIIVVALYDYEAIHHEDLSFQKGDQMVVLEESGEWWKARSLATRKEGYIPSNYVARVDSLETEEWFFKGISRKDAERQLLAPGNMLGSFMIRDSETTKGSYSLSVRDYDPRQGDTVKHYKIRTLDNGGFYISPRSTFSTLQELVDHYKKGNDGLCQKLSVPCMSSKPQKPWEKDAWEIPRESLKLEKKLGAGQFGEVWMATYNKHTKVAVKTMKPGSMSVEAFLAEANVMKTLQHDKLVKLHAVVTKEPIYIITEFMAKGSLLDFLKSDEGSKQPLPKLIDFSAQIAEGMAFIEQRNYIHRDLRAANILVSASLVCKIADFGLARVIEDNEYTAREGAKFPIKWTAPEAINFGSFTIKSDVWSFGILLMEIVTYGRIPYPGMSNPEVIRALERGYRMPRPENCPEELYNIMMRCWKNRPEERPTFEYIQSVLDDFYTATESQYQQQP
Chain of Ribosomal protein S6 kinase alpha-5 (Homo sapiens) (O75582 whole entry, looked up): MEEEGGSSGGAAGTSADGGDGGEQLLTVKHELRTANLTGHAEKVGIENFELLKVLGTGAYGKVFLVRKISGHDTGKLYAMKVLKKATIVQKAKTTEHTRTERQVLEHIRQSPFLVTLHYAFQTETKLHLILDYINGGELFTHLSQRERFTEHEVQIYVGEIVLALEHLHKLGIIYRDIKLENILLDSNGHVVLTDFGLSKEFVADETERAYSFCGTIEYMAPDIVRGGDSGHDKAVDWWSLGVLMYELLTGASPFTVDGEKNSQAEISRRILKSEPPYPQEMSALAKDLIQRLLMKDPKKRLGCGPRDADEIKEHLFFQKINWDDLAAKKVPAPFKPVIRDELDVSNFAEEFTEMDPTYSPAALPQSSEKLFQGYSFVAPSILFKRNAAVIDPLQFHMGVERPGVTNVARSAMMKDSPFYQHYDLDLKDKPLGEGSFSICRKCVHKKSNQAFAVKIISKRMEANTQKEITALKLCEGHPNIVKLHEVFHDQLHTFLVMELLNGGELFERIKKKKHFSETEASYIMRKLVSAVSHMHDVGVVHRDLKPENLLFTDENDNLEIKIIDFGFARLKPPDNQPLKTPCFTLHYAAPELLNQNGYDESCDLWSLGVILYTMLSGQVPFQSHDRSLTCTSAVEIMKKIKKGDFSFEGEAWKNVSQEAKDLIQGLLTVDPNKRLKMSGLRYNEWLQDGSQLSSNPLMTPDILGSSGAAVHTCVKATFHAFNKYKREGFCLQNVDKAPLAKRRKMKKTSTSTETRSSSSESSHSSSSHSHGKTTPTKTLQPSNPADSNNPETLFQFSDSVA

`N#Cc1cccc(-c2c[nH]c3ncnc(N4CCOCC4)c23)c1` had a % of inhibition in assay [1] of 21%.
`Cc1cc(F)c(C(=O)Nc2cccc(-c3nncn3C(C)C)n2)cc1-n1cnc(C2CC2)c1`: in [2], the % of control turned out to be 89%.
On to `CNC(=O)Nc1ccc(-c2nc(N3CC4CCC(C3)O4)c3cnn(C4CCC5(CC4)OCCO5)c3n2)cc1`, for which the % of inhibition in assay [3] came out at 0%.
`CN(C)CC#Cc1ccc2[nH]c3c(c2c1)-c1nc(N)ncc1CCC3`: the % of control in [4] stood at 14%.
On to `Cc1cc([C@@H](C)Nc2ccccc2C(=O)O)c2nc(N3CCOCC3)cc(=O)n2c1` [AZD-6482], for which, in assay [5], the % of control was 82%.
On to `C=CC(=O)Nc1cccc(C(=O)Nc2ccc(Nc3cc(-c4[nH]c(SC)nc4C)ccn3)cc2)c1`, for which the % of control in assay [6] (at 1 µM) amounted to 92%; in assay [6] (at 5 µM), 83%.
In assay [7], `CN(C)CCOc1ccc(-c2nc(-c3ccncc3)c(-c3ccc4c(c3)CC/C4=N\O)[nH]2)cc1` came in with a % of control of 89%.
The molecule `O[C@H]1CC[C@H](Nc2ncc3nc(Nc4c(F)cc(F)cc4F)n([C@H]4CCOC4)c3n2)CC1` registered a % of control in [8] of 30%.
Regarding `Nc1cnc(N2CCc3cc(S(=O)(=O)Nc4c(F)cc(Cl)cc4F)cc(N4CCCC4=O)c32)nc1` [TP-020n], the % of control in assay [9] is 100%; in [10] it was 95%; in [11], 100%.
